Source: patent US7994318B2, “Coumarin derivatives useful as TNFα inhibitors” (Chugai Seiyaku Kabushiki Kaisha, priority 2000, dated 2011)
Like-named read-outs stand apart in the source and are kept apart here.

Tested on: TNFα
Assay: In vitro assay: TNFα ELISA of supernatants of LPS-stimulated human PBMC
Assay type: cell-based
Settings: human PBMC pretreated with drug 60 min, stimulated with LPS (E. coli O55:B5) 100 ng/mL, overnight culture, TNFα in supernatant by ELISA, read-out: 50% Inhibition of TNFα level (IC50)
Method: Enzyme-linked immunosorbent assays (ELISA) for TNFα can be performed in a conventional manner (Blood, 75, 40-47 (1990)). Human PBMC are isolated from heparinized venous blood obtained from healthy volunteers by Ficoll-Hypaque density centrifugation. The cells are cultured in RPMI1640 medium supplemented with 5% heat-inactivated fetal calf serum and antibiotics. PBMC (5×10E5 cells/mL) in 0.2 mL aliquot are pretreated with drugs in DMSO for 60 min at 37° C. in 96 well round-bottomed tissue culture plates. Thereafter, PBMC in the presence or absence of compound are stimulated with 1 mg/mL LPS from E. coli O55:B5 at a final concentration of 100 ng/mL. After overnight culture, the supernatants are harvested and assayed immediately for TNFα levels from each well. The concentration of TNFα in the supernatant is determined by human TNFα ELISA Kit according to the manufacture's directions.
Active compounds are characterized by the concentration of the compound that caused 50% inhibition of TNFα level (IC50).

Compound | IC50 (Homo sapiens, PBMC) [µM] | IC50 [µM]
Cc1c(Cc2ccccc2)c(=O)oc2cc(Oc3ncccn3)ccc12 [Example 15, 2-oxo-2H-3-benzyl-4-methyl-7-(pyrimidin-2-yloxyl)-1-benzopyrane] | 9.4 | 
Cc1c(Cc2ccccc2)c(=O)oc2cc(Oc3ncccn3)c(Cl)cc12 [Example 16, 2-oxo-2H-3-benzyl-4-methyl-6-chloro-7-(pyrimidin-2-yloxyl)-1-benzopyrane] | 6.8 | 
Cc1c(Cc2cccnc2)c(=O)oc2cc(Oc3ncccn3)c(Cl)cc12 [Example 17, 2-oxo-2H-3-(3-pyridylmethyl)-4-methyl-6-chloro-7-(pyrimidin-2-yloxyl)-1-benzopyrane] | 50 | 
CCOC(=O)CC(=O)Nc1cccc(Cc2c(C)c3ccc(Oc4ncccn4)cc3oc2=O)c1 [Example 19, 2-oxo-2H-3-(m-ethoxycarbonyl-acetylaminobenzyl)-4-methyl-7-(pyrimidin-2-yloxyl)-1-benzopyrane] | < 0.6 | 
Cc1c(Cc2ccccc2)c(=O)oc2cc(Oc3ncccn3)c(Br)cc12 [Example 20-4] |  | 9.5
Cc1c(Cc2ccccc2)c(=O)oc2cc(Oc3ncccn3)c(I)cc12 [Example 20-5] |  | 8.8
Cc1c(Cc2ccncc2)c(=O)oc2cc(Oc3ncccn3)ccc12 [Example 20-10] |  | 10.4
Cc1c(Cc2ccncc2)c(=O)oc2cc(Oc3ncccn3)c(Cl)cc12 [Example 20-13] |  | 7.5
Cc1c(Cc2ccccc2)c(=O)oc2cc(Oc3ncccn3)cc(F)c12 [Example 20-14] |  | 9.7
Cc1c(Cc2cccc(N)c2)c(=O)oc2cc(Oc3ncccn3)ccc12 [Example 20-19] |  | 7.2
CC(=O)Nc1cccc(Cc2c(C)c3ccc(Oc4ncccn4)cc3oc2=O)c1 [Example 20-20] |  | 6.6
CCOC(=O)CCC(=O)Nc1cccc(Cc2c(C)c3ccc(Oc4ncccn4)cc3oc2=O)c1 [Example 20-21] |  | 2.8
Cc1c(Cc2cccc(N)c2)c(=O)oc2cc(Oc3ncccn3)c(Cl)cc12 [Example 20-26] |  | 9.8
Cc1c(Cc2cccc(N(C)C)c2)c(=O)oc2cc(Oc3ncccn3)c(Cl)cc12 [Example 20-27] |  | 5.1
CCOC(=O)CCC(=O)Nc1cccc(Cc2c(C)c3cc(Cl)c(Oc4ncccn4)cc3oc2=O)c1 [Example 20-28] |  | 1.2
CCOC(=O)CC(=O)Nc1cccc(Cc2c(C)c3cc(Cl)c(Oc4ncccn4)cc3oc2=O)c1 [Example 20-29] |  | < 0.6
CC(=O)NCC(=O)Nc1cccc(Cc2c(C)c3cc(Cl)c(Oc4ncccn4)cc3oc2=O)c1 [Example 20-30] |  | 5.8
Cc1c(Cc2cccc(NC(=O)CNC(=O)OCc3ccccc3)c2)c(=O)oc2cc(Oc3ncccn3)c(Cl)cc12 [Example 20-31] |  | 9.8
Cc1c(Cc2cccc(NC(=O)CCNC(=O)OCc3ccccc3)c2)c(=O)oc2cc(Oc3ncccn3)c(Cl)cc12 [Example 20-32] |  | 11.4
Cc1c(Cc2cccc(NC(=O)CC(=O)O)c2)c(=O)oc2cc(Oc3ncccn3)c(Cl)cc12 [Example 20-34] |  | 10.6

Compound | IC50 (Homo sapiens, PBMC) [µM] | IC50 [µM]
CC(=O)Nc1cccc(Cc2c(C)c3c(Cl)cc(Oc4ncccn4)cc3oc2=O)c1 [Example 20-37] |  | 11.8
CC(=O)Nc1cccc(Cc2c(C)c3c(F)cc(Oc4ncccn4)cc3oc2=O)c1 [Example 20-39] |  | 5.4
CCOC(=O)CC(=O)Nc1cccc(Cc2c(C)c3c(F)cc(Oc4ncccn4)cc3oc2=O)c1 [Example 20-40] |  | < 0.6
Cc1c(Cc2cccc(NS(C)(=O)=O)c2)c(=O)oc2cc(Oc3ncccn3)c(Cl)cc12 [Example 20-41] |  | < 0.6
CC(=O)CC(=O)Nc1cccc(Cc2c(C)c3cc(Cl)c(Oc4ncccn4)cc3oc2=O)c1 [Example 20-42] |  | 2.2
CC(=O)Nc1cccc(Cc2c(C)c3cc(Cl)c(Oc4ncccn4)cc3oc2=O)c1 [Example 20-43] |  | 3.1
CCS(=O)(=O)Nc1cccc(Cc2c(C)c3cc(Cl)c(Oc4ncccn4)cc3oc2=O)c1 [Example 20-44] |  | 0.3
Cc1ccc(S(=O)(=O)Nc2cccc(Cc3c(C)c4cc(Cl)c(Oc5ncccn5)cc4oc3=O)c2)cc1 [Example 20-45] |  | 7.2
CCCS(=O)(=O)Nc1cccc(Cc2c(C)c3cc(Cl)c(Oc4ncccn4)cc3oc2=O)c1 [Example 20-46] |  | 0.96
Cc1c(Cc2cccc(NS(=O)(=O)C(C)C)c2)c(=O)oc2cc(Oc3ncccn3)c(Cl)cc12 [Example 20-47] |  | 0.31
CCCCS(=O)(=O)Nc1cccc(Cc2c(C)c3cc(Cl)c(Oc4ncccn4)cc3oc2=O)c1 [Example 20-48] |  | 1.8
CCc1c(Cc2ccccc2)c(=O)oc2cc(Oc3ncccn3)ccc12 [Example 20-49] |  | 10.9
CCc1c(Cc2ccccc2)c(=O)oc2cc(Oc3ncccn3)c(Cl)cc12 [Example 20-50] |  | 4.5
CCc1c(Cc2cccc(NC(C)=O)c2)c(=O)oc2cc(Oc3ncccn3)ccc12 [Example 20-54] |  | 6.7
CCc1c(Cc2cccc([N+](=O)[O-])c2)c(=O)oc2cc(Oc3ncccn3)c(Cl)cc12 [Example 20-55] |  | 6.4
CCc1c(Cc2cccc(N)c2)c(=O)oc2cc(Oc3ncccn3)c(Cl)cc12 [Example 20-56] |  | 7.8
CCc1c(Cc2cccc(NC(C)=O)c2)c(=O)oc2cc(Oc3ncccn3)c(Cl)cc12 [Example 20-57] |  | 3.6
CCc1c(Cc2cccc([N+](=O)[O-])c2)c(=O)oc2cc(Oc3ncccn3)cc(F)c12 [Example 20-58] |  | 11.9
CCc1c(Cc2cccc(N)c2)c(=O)oc2cc(Oc3ncccn3)cc(F)c12 [Example 20-59] |  | 5.9
CCc1c(Cc2cccc(NC(C)=O)c2)c(=O)oc2cc(Oc3ncccn3)cc(F)c12 [Example 20-60] |  | 4.4

Compound | IC50 (Homo sapiens, PBMC) [µM] | IC50 [µM]
CCOC(=O)CC(=O)Nc1cccc(Cc2c(CC)c3c(F)cc(Oc4ncccn4)cc3oc2=O)c1 [Example 20-61] |  | 0.65
Cc1c(Cc2ccccc2)c(=O)oc2cc(Oc3nccs3)ccc12 [Example 21, 2-oxo-3-benzyl-4-methyl-7-(thiazol-2-yloxyl)-2H-1-benzopyrane] | 9.1 | 10.5
Cc1c(Cc2cccc([N+](=O)[O-])c2)c(=O)oc2cc(Oc3nccs3)ccc12 [Example 22-2] |  | 6.6
Cc1c(Cc2cccc([N+](=O)[O-])c2)c(=O)oc2cc(Oc3nccs3)cc(F)c12 [Example 22-3] |  | 10.1
Cc1c(Cc2cccc(N)c2)c(=O)oc2cc(Oc3nccs3)ccc12 [Example 22-4] |  | 6
CCOC(=O)CC(=O)Nc1cccc(Cc2c(C)c3ccc(Oc4nccs4)cc3oc2=O)c1 [Example 22-6] |  | 0.25
CCc1c(Cc2cccc(N)c2)c(=O)oc2cc(Oc3nccs3)ccc12 [Example 22-7] |  | 4.2
CCc1c(Cc2cccc(NC(C)=O)c2)c(=O)oc2cc(Oc3nccs3)ccc12 [Example 22-8] |  | < 0.6
CCOC(=O)CC(=O)Nc1cccc(Cc2c(CC)c3ccc(Oc4nccs4)cc3oc2=O)c1 [Example 22-9] |  | 0.27
CCc1c(Cc2ccccc2)c(=O)oc2cc(Oc3nccs3)ccc12 [Example 22-10] |  | 2.5
CCc1c(Cc2cccc([N+](=O)[O-])c2)c(=O)oc2cc(Oc3nccs3)ccc12 [Example 22-11] |  | 3.2
C=Cc1ccc2c(C)c(Cc3ccccc3)c(=O)oc2c1 [Example 23, 2-oxo-3-benzyl-4-methyl-7-vinyl-2H-1-benzopyrane] | 10.3 | 
Cc1c(Cc2ccccc2)c(=O)oc2cc(C(F)(F)C(=O)N(C)C)ccc12 [Example 24, 2-oxo-3-benzyl-4-methyl-7-(N,N-dimethylaminocarboxy-difluoromethyl)-1H-benzopyrane] | 10.4 | 
Cc1c(Cc2ccccc2)c(=O)oc2cc(Cn3ccnc3N)ccc12 [Example 25, 2-oxo-3-benzyl-4-methyl-7-(2-aminoimidazol-1-yl-methyl)-1H-benzopyrane] | 11.8 | 13.7
Cc1c(Cc2ccccc2)c(=O)oc2cc(C=O)ccc12 [Example 26-1] |  | 6.3
Cc1c(Cc2ccccc2)c(=O)oc2cc(C(C)(F)F)ccc12 [Example 26-11] |  | 9
Cc1c(Cc2ccccc2)c(=O)oc2cc(Cn3ccnc3N)c(Cl)cc12 [Example 26-16] |  | 8.6
Cc1c(Cc2ccccc2)c(=O)oc2cc(C(O)c3ccsc3)ccc12 (stereo not shown) [Example 26-22] |  | 8.2
Cc1c(Cc2ccccc2)c(=O)oc2cc(C(F)C#N)ccc12 (stereo not shown) [Example 26-24] |  | 1.7
